Data as given in ChEMBL document CHEMBL3259636, “Phenyl carboxamide analogues as spleen tyrosine kinase (syk) inhibitors” (ACS Med Chem Lett, 2014).
pIC50: −log10 of the molar value.

target: Tyrosine-protein kinase SYK (Homo sapiens, UniProt P43405); assay: Inhibition of human recombinant SYK by HTRF assay

SMILES | pIC50
NC(=O)c1ccc(N[C@@H]2CCCC[C@@H]2N)cc1Nc1cccc(-c2ccc(F)c(F)c2)n1 | > 8.82
Cc1cccc(Nc2cc(N[C@@H]3CCCC[C@@H]3N)ccc2C(N)=O)n1 | < 8.82

Other lines, results leading:

pIC50 | SMILES
> 8.82 | NC(=O)c1ccc(N[C@@H]2CCCC[C@@H]2N)cc1Nc1cccc(-c2ccccc2)n1
> 8.82 | NC(=O)c1ccc(N[C@@H]2CCCC[C@@H]2N)cc1Nc1cccc(-c2cccc(F)c2)n1
> 8.82 | COc1ccc(-c2cccc(Nc3cc(N[C@@H]4CCCC[C@@H]4N)ccc3C(N)=O)n2)cc1
